Experimental data from PubChem BioAssay (NCI).
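Exposure lasted 48 hours, with cells grown in 96-well plates and compounds tested at five concentrations. At the GI50, growth is halved. TGI: concentration producing complete growth inhibition.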

How the values were obtained:
Test in all cases: growth of human tumour cells (NCI), 48 h; in the data active means GI50 below about 0.43 µM; inactive means the rest
[1] = test system: UACC-257 melanoma
[2] = test system: SR leukemia
[3] = test system: 786-0 renal
[4] = test system: HOP-92 NSCLC
[5] = test system: U251 CNS
[6] = test system: HCC-2998 colon
[7] = test system: K-562 leukemia
[8] = test system: DU-145 prostate
[9] = test system: NCI-H23 lung
[10] = test system: CAKI-1 renal
[11] = test system: SF-295 CNS
[12] = test system: NCI-H522 lung
[13] = test system: UO-31 renal
[14] = test system: MOLT-4 leukemia
[15] = test system: MDA-MB-231 breast
[16] = test system: COLO 205 colon
[17] = test system: IGROV1 ovarian
[18] = test system: HCT-116 colon
[19] = test system: BT-549 breast
[20] = test system: A549 NSCLC
[21] = test system: MCF7 breast
[22] = test system: NCI-H460 lung
[23] = test system: M14 melanoma
[24] = test system: LOX IMVI melanoma
[25] = test system: CCRF-CEM leukemia
[26] = test system: NCI-H226 lung
[27] = test system: OVCAR-3 ovarian
[28] = test system: RPMI-8226 leukemia
[29] = test system: HOP-62 NSCLC
[30] = test system: HS 578T breast
[31] = test system: KM12 colon
[32] = test system: PC-3 prostate
[33] = test system: T-47D breast
[34] = test system: SK-MEL-28 melanoma
[35] = test system: SF-539 CNS
[36] = test system: SK-MEL-2 melanoma
[37] = test system: SN12C renal
[38] = test system: SNB-75 CNS
[39] = test system: HT29 colon
[40] = test system: RXF 393 renal
[41] = test system: UACC-62 melanoma
[42] = test system: SK-OV-3 ovarian
[43] = test system: OVCAR-4 ovarian
[44] = test system: HCT-15 colon
[45] = test system: MDA-MB-468 breast
[46] = test system: OVCAR-8 ovarian
[47] = test system: SW-620 colon
[48] = test system: SF-268 CNS
[49] = test system: TK-10 renal
[50] = test system: EKVX NSCLC
[51] = test system: SK-MEL-5 melanoma
[52] = test system: ACHN renal
[53] = test system: SNB-19 CNS
[54] = test system: MALME-3M melanoma
[55] = test system: OVCAR-5 ovarian
[56] = test system: A498 renal
[57] = test system: HL-60(TB) leukemia

Oc1ccc(/C=C2\CCCc3cc4ccc(O)cc4[o+]c32)c(O)c1
52.4 µM: TGI [34]
65.6 µM: TGI [38]
6.46 µM: TGI [45]
inactive: GI50 [1] 15.3 µM | GI50 [2] 3.09 µM | GI50 [3] 8.21 µM | GI50 [4] 6.43 µM | GI50 [5] 4.16 µM | GI50 [6] 6.29 µM | GI50 [7] 4.03 µM | GI50 [8] 22.2 µM | GI50 [9] 11.7 µM | GI50 [10] 5.25 µM | GI50 [11] 19.7 µM | GI50 [12] 2.51 µM | GI50 [13] 7.23 µM | GI50 [14] 3.06 µM | GI50 [15] 3.99 µM | GI50 [16] 15.2 µM | GI50 [17] 18.9 µM | GI50 [18] 3.82 µM | GI50 [19] 5.75 µM | GI50 [20] 44.2 µM | GI50 [21] 2.68 µM | GI50 [22] 5.14 µM | GI50 [23] 6.7 µM | GI50 [24] 2.95 µM | GI50 [25] 3.56 µM | GI50 [26] 26.6 µM | GI50 [27] 3.39 µM | GI50 [28] 4.93 µM | GI50 [29] 44.2 µM | GI50 [30] 2.68 µM | GI50 [31] 3.3 µM | GI50 [32] 4.09 µM | GI50 [33] 5.23 µM | GI50 [34] 12.3 µM | GI50 [35] 7.04 µM | GI50 [36] 12.2 µM | GI50 [37] 29.9 µM | GI50 [38] 2.88 µM | GI50 [39] 17.9 µM | GI50 [40] 2.26 µM | GI50 [41] 5.02 µM | GI50 [42] 27.2 µM | GI50 [43] 16.5 µM | GI50 [44] 3.27 µM | GI50 [45] 1.99 µM | GI50 [46] 6.91 µM | GI50 [47] 3.87 µM | GI50 [48] 6.81 µM | GI50 [49] 47.2 µM | GI50 [50] 8.82 µM | GI50 [51] 5.74 µM | GI50 [52] 6.1 µM | GI50 [53] 24.9 µM | GI50 [54] 4.77 µM | GI50 [55] 53.1 µM | GI50 [56] > 100 µM | GI50 [57] 2.65 µM
10.8 µM: TGI [40]
42.2 µM: TGI [22]
33.1 µM: TGI [15]
19.9 µM: TGI [51]
41.3 µM: TGI [5]
46.6 µM: TGI [39]
59.9 µM: TGI [13]
57.3 µM: TGI [57]
20.4 µM: TGI [6]
40.3 µM: TGI [54]
11.2 µM: TGI [12] | TGI [44]
58.6 µM: TGI [36]
69.2 µM: TGI [47]
14.7 µM: TGI [27]
44.5 µM: TGI [16]
12.5 µM: TGI [24]
13.7 µM: TGI [31]
78.1 µM: TGI [17]
70.8 µM: TGI [21]
> 100 µM: TGI [1] | TGI [2] | TGI [3] | TGI [4] | TGI [7] | TGI [8] | TGI [9] | TGI [10] | TGI [11] | TGI [14] | TGI [18] | TGI [19] | TGI [20] | TGI [23] | TGI [25] | TGI [26] | TGI [28] | TGI [29] | TGI [30] | TGI [32] | TGI [33] | TGI [37] | TGI [42] | TGI [43] | TGI [46] | TGI [48] | TGI [49] | TGI [50] | TGI [52] | TGI [53] | TGI [55] | TGI [56]
42 µM: TGI [35]
26 µM: TGI [41]
